Data on 10 molecules can be found in ChEMBL document CHEMBL1201862, “PubChem BioAssay data set” (2004).

Molecules are shown by their SMILES.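 48-hour exposure; five concentrations; linearly interpolated endpoints. Here, GI50 denotes the concentration required for 50% inhibition of growth.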 Activity calls are given as the source filed them. Cut-off read from the data, not from the text of the source: active = GI50 up to about 1.1 µM and inactive = higher.

Test systems include T47D; KM12; MOLT-4; NCI-H23; COLO 205; A498; HOP-92; OVCAR-4; OVCAR-8; SF-539; UO-31; ACHN; 786-0; NCI-H460; LOX IMVI; Malme-3M; EKVX; MDA-MB-435; HCC 2998; NCI-H522.
Assay in all cases: NCI tumour cell line growth inhibition, 48 h

Take `Nc1nc(Cl)cc(NCCO)n1`: the GI50 in the assay with T47D, in the assay on KM12, in the assay on MOLT-4, in the assay on NCI-H23, with COLO 205 and with A498 was > 100 µM (inactive) throughout. Besides, the GI50 in the assay with HOP-92, in the assay with OVCAR-4, in the assay with OVCAR-8, in the assay with SF-539, in the assay on UO-31 and in the assay with ACHN was > 100 µM (inactive) throughout. Besides, the GI50 in the assay with 786-0, with NCI-H460, with LOX IMVI, in the assay on Malme-3M, in the assay with EKVX and with MDA-MB-435 was > 100 µM (inactive) throughout. The GI50 in the assay on HCC 2998 was 72.6 µM (inactive); in the assay on NCI-H522 it was > 100 µM (inactive).
As to `CCCCc1ccc(Nc2nc(S)c3ncn(COCCO)c3n2)cc1`, the GI50 in the assay with T47D is 11.6 µM (inactive); in the assay on KM12 it was 38 µM (inactive); in the assay on MOLT-4 it was 33.5 µM (inactive); in the assay with NCI-H23 it was 34.4 µM (inactive); with COLO 205 it was 20.6 µM (inactive); with A498 it was > 100 µM (inactive). In addition, the GI50 with HOP-92 was 27.4 µM (inactive); in the assay with OVCAR-4 it was 45.4 µM (inactive); in the assay with OVCAR-8, 45.4 µM (inactive); in the assay with SF-539 it was > 100 µM (inactive); in the assay on UO-31 it was > 100 µM (inactive); in the assay with ACHN, 43.1 µM (inactive). Also, the GI50 in the assay with 786-0 was > 100 µM (inactive); with NCI-H460, 41.5 µM (inactive); in the assay on LOX IMVI it was 27.4 µM (inactive); in the assay with Malme-3M, 23.3 µM (inactive); in the assay with EKVX, 60.5 µM (inactive); with MDA-MB-435, 57.4 µM (inactive). Moreover, the GI50 with HCC 2998 was 36.8 µM (inactive); in the assay on NCI-H522 it was 20.9 µM (inactive).
Consider `CCC/C(Cl)=N/OC(=O)Nc1cc(C(F)(F)F)ccc1OC`, for which the GI50 in the assay on T47D was 6.44 µM (inactive); with KM12, 18.1 µM (inactive); in the assay on MOLT-4, 2.1 µM (inactive); in the assay with NCI-H23, 18.7 µM (inactive); with COLO 205, 1.95 µM (inactive); in the assay on A498, 15.1 µM (inactive). Further, the GI50 with HOP-92 was 2.43 µM (inactive); with OVCAR-4, 3.23 µM (inactive); in the assay on OVCAR-8, 16.1 µM (inactive); in the assay with SF-539, 15.3 µM (inactive); in the assay with UO-31, 16.4 µM (inactive); in the assay on ACHN it was 13.2 µM (inactive). For the same molecule, the GI50 with 786-0 was 6.05 µM (inactive); in the assay on NCI-H460, 19.5 µM (inactive); in the assay with LOX IMVI, 4.46 µM (inactive); in the assay with Malme-3M it was 2.92 µM (inactive); in the assay with EKVX it was 7.24 µM (inactive); in the assay with MDA-MB-435, 13.4 µM (inactive). The GI50 in the assay on HCC 2998 is 16.9 µM (inactive); in the assay with NCI-H522 it was 1.56 µM (inactive).
Regarding `COc1ccc(C2(C3c4cc(OC)c(OC)cc4CCN3C)SCCCS2)cc1O` (stereo not drawn), the GI50 in the assay on T47D was > 100 µM (inactive); with KM12 it was 71.8 µM (inactive); with MOLT-4, 26 µM (inactive); in the assay with NCI-H23, > 100 µM (inactive); with COLO 205 it was > 100 µM (inactive); with A498 it was > 100 µM (inactive). The GI50 in the assay on HOP-92 is 76.2 µM (inactive); in the assay with OVCAR-4, > 100 µM (inactive); with OVCAR-8, > 100 µM (inactive); in the assay with SF-539, > 100 µM (inactive); in the assay on UO-31, > 100 µM (inactive); in the assay on 786-0 it was > 100 µM (inactive). Further, the GI50 in the assay with NCI-H460 was > 100 µM (inactive); with LOX IMVI, > 100 µM (inactive); in the assay with Malme-3M, > 100 µM (inactive); in the assay on EKVX it was 60 µM (inactive); with MDA-MB-435, > 100 µM (inactive); with HCC 2998, > 100 µM (inactive). The GI50 in the assay on NCI-H522 is 41.7 µM (inactive).
With `Cc1ccc2nnc(NS(=O)(=O)c3cc(C)c(Cl)cc3S)n2n1`, the GI50 with T47D, in the assay on KM12, in the assay with MOLT-4, in the assay on COLO 205, in the assay with A498 and with HOP-92 was > 100 µM (inactive) throughout. For the same molecule, the GI50 is > 100 µM (inactive) in the assay with OVCAR-4; > 100 µM (inactive) in the assay on OVCAR-8; > 100 µM (inactive) in the assay with SF-539; 68.5 µM (inactive) in the assay with UO-31; > 100 µM (inactive) in the assay with ACHN; > 100 µM (inactive) in the assay with 786-0. Also, the GI50 in the assay with NCI-H460, in the assay with LOX IMVI, in the assay on Malme-3M, in the assay on EKVX, in the assay with MDA-MB-435 and in the assay with HCC 2998 was > 100 µM (inactive) throughout. In addition, the GI50 with NCI-H522 is > 100 µM (inactive).
`C=CC(=O)C#Cc1cnc(OC)nc1OC`: the GI50 in the assay with T47D is 21.7 µM (inactive); in the assay with KM12 it was 13.4 µM (inactive); in the assay on MOLT-4 it was 1.69 µM (inactive); in the assay on NCI-H23 it was 17.5 µM (inactive); in the assay with COLO 205 it was 3.83 µM (inactive); with A498, 34.3 µM (inactive). The GI50 with HOP-92 was 1.39 µM (inactive); in the assay on OVCAR-4, 20.8 µM (inactive); in the assay on OVCAR-8, 26.7 µM (inactive); with SF-539, 13.3 µM (inactive); in the assay on UO-31, 16.9 µM (inactive); in the assay with ACHN, 7.43 µM (inactive). Besides, the GI50 was 4.15 µM (inactive) with 786-0; 24.6 µM (inactive) with NCI-H460; 5.46 µM (inactive) with LOX IMVI; 15.8 µM (inactive) in the assay with Malme-3M; 24.4 µM (inactive) in the assay on EKVX; 16.6 µM (inactive) with MDA-MB-435. For the same molecule, the GI50 in the assay with HCC 2998 is 19 µM (inactive); in the assay on NCI-H522, 6.41 µM (inactive).
Take `CCOC(=O)c1nc2ccccc2nc1Nc1ccc(F)cc1`: the GI50 in the assay on T47D was 22.9 µM (inactive); with KM12 it was > 100 µM (inactive); in the assay on MOLT-4, > 100 µM (inactive); in the assay on NCI-H23 it was 20.8 µM (inactive); in the assay on COLO 205, > 100 µM (inactive); with A498 it was 20.9 µM (inactive). Moreover, the GI50 is 15.7 µM (inactive) in the assay with HOP-92; > 100 µM (inactive) in the assay with OVCAR-4; 11.5 µM (inactive) in the assay with OVCAR-8; 14.2 µM (inactive) with SF-539; > 94.4 µM (inactive) with UO-31; 27.5 µM (inactive) with ACHN. Moreover, the GI50 in the assay with 786-0 is 17.9 µM (inactive); with NCI-H460, 51.6 µM (inactive); in the assay on LOX IMVI, 79.4 µM (inactive); with Malme-3M, > 100 µM (inactive); in the assay with EKVX it was 16.5 µM (inactive); with MDA-MB-435, > 100 µM (inactive). For the same molecule, the figures for the GI50 in the assay on HCC 2998 and with NCI-H522 were > 100 µM (inactive) and 20.4 µM (inactive), respectively.
For the molecule `COc1cc2c(cc1OCCCCOc1cc(-c3ccc(F)cc3)nc(C)n1)N=C[C@@H]1CCCN1C2=O`, the GI50 with T47D was 0.294 µM (active); with KM12, 0.728 µM (active); in the assay on MOLT-4, 0.108 µM (active); with NCI-H23, 0.468 µM (active); in the assay on COLO 205, 0.346 µM (active); in the assay with A498, 1.01 µM (active). Further, the GI50 in the assay with HOP-92 is 0.443 µM (active); with OVCAR-4 it was 0.26 µM (active); with OVCAR-8 it was 0.989 µM (active); in the assay with SF-539 it was 0.927 µM (active); in the assay on UO-31 it was 0.5 µM (active); with ACHN, 0.189 µM (active). For the same molecule, the GI50 is 0.486 µM (active) with 786-0; 0.413 µM (active) with NCI-H460; 0.166 µM (active) with LOX IMVI; 0.82 µM (active) in the assay on Malme-3M; 1.66 µM (inactive) in the assay with EKVX; 0.652 µM (active) in the assay with MDA-MB-435. In addition, the GI50 with HCC 2998 is 0.029 µM (active); in the assay on NCI-H522 it was 0.212 µM (active).
Turning to `O=C1CC2[C@@H](N3CCCC3)CCC(N1Cc1ccccc1)C2(O)O` (stereo partly drawn), the GI50 in the assay with T47D, in the assay with KM12, in the assay with MOLT-4, with NCI-H23, with COLO 205 and with A498 was > 100 µM (inactive) each time. Besides, the GI50 with HOP-92 is > 100 µM (inactive); with OVCAR-4, > 10 µM (inactive); with OVCAR-8, > 100 µM (inactive); in the assay on SF-539, > 100 µM (inactive); with UO-31 it was > 100 µM (inactive); in the assay on ACHN it was > 100 µM (inactive). Further, the GI50 in the assay with 786-0, in the assay with NCI-H460, in the assay with LOX IMVI, with Malme-3M, in the assay with EKVX and in the assay with MDA-MB-435 was > 100 µM (inactive) each time. Moreover, the GI50 in the assay with HCC 2998 and in the assay on NCI-H522 was > 100 µM (inactive) in each case.
For `Cc1ccnc2nc(-c3ccc(F)cc3)cc(O)c12`, the GI50 in the assay with T47D is > 72.6 µM (inactive); in the assay on KM12 it was 7.23 µM (inactive); in the assay with MOLT-4, > 71.4 µM (inactive); in the assay on NCI-H23 it was 75.7 µM (inactive); in the assay with COLO 205 it was 19.5 µM (inactive); in the assay with A498 it was 63.2 µM (inactive). Besides, the GI50 in the assay with HOP-92 is 51.1 µM (inactive); with OVCAR-4, 77.6 µM (inactive); with OVCAR-8 it was > 100 µM (inactive); in the assay on SF-539, 57.3 µM (inactive); with UO-31, > 70.5 µM (inactive); with ACHN, 68.1 µM (inactive). Besides, the GI50 with 786-0 is 42.2 µM (inactive); with NCI-H460, 13.2 µM (inactive); in the assay on LOX IMVI, 26.2 µM (inactive); in the assay with Malme-3M it was 92.7 µM (inactive); in the assay with EKVX, 79.6 µM (inactive); with MDA-MB-435, 3.15 µM (inactive). The GI50 is 60 µM (inactive) with HCC 2998 and 9.04 µM (inactive) in the assay with NCI-H522.
